{
  "source": "patent US20230312646A1",
  "about": "“ANTIBACTERIAL PEPTIDES” (priority 2020, published 2023)",
  "key": {"[1]": {"target": "T1, Escherichia coli SC (^EcSC) (Escherichia coli, UniProt P0A988)", "T1 construct": "His tag (inferred from the pET15b vector and Ni-NTA purification) (N); made in house; host or cells: E. coli", "T1 sequence (P0A988 whole entry)": "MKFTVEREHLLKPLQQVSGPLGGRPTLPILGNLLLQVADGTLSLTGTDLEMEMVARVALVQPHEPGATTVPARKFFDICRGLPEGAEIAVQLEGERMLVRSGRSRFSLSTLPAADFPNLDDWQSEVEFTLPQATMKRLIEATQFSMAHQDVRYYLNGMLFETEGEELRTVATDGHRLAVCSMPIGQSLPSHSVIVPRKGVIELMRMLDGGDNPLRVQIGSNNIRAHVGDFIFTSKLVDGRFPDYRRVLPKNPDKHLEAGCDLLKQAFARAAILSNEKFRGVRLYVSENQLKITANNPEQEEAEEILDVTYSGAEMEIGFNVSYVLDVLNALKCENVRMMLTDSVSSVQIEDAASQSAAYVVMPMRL", "test": "biochemical", "type": "binding", "description": "The procedure has been described previously (Wolff, P.; Oliéric, V.; Briand, J. P.; Chaloin, O.; Dejaegere, A.; Dumas, P.; Ennifar, E.; Guichard, G.; Wagner, J.; Burnouf, D. Y., Structure-Based Design of Short Peptide Ligands Binding onto the E. coli Processivity Ring. J. Med. Chem. 2011, 54 (13), 4627-4637). Briefly, E.coli cells were transformed with plasmids pET15b containing the dnaN gene from E. coli and were grown in LB at 37° C. to OD 0.5, then induced by IPTG (0.1 mM) at 28° C. overnight. dnaN proteins fractions were first enriched on a Ni-NTA column, eluted with a histidine step (300 mM) and further purified on a Source Q column in buffer containing 20 mM Tris HCI pH 7.5, 0.5 mM EDTA and 10% (v/v) glycerol, using a gradient from 0 to 0.5 M NaCl. After a final ultracentrifugation (45 K, 1 h, 20° C.), soluble proteins were concentrated on a Centricon 30 K (Millipore) in the same buffer and stored at 4° C. in 2 M ammonium sulfate. Buffer exchange was performed on Centrikon 10 K at 4° C. before use and protein quality was assessed by DLS.\n(§1) ITC experiments were performed using an iTC200 or a PEAQ-ITC instrument (Microcal Malvern Panalytical). Peptides (300 or 600 µM) were titrated at 25° C. by sequential injections (usually 2 µl each) into an SC solution (30 or 60 µM). Data were corrected for heat of injection by subtracting the signal of the titration of peptides into proteiN-free buffer solution (Hepes 10 mM pH 7.4, NaCl 0.15 M, EDTA 3 mM). Each titration was performed at least twice. Analyses of experimental data were performed following a classical treatment with the AFFINImeter software (https://www.affinimeter.com; S4S, Santiago de Compostela, Spain). In addition, kinetic information was obtained in some cases with kinITC as implemented in the software AFFINImeter.\nAll newly synthesized peptides were tested for their interaction with ^EcSC by ITC at 25° C. As a general rule, all thermodynamic profiles reveal an exothermic interaction, and a non-favorable entropic component. The resulting negative Gibb’s free energies characterize a spontaneous interaction. The analysis of raw data by the Affinimeter® software also gave access to kinetics rate constant of the interaction."}, "[2]": {"target": "T2, clamps from Pseudomonas aeruginosa (^PaSC) (Pseudomonas aeruginosa, UniProt Q9I7C4)", "T2 construct": "made in house", "T2 sequence (Q9I7C4 whole entry)": "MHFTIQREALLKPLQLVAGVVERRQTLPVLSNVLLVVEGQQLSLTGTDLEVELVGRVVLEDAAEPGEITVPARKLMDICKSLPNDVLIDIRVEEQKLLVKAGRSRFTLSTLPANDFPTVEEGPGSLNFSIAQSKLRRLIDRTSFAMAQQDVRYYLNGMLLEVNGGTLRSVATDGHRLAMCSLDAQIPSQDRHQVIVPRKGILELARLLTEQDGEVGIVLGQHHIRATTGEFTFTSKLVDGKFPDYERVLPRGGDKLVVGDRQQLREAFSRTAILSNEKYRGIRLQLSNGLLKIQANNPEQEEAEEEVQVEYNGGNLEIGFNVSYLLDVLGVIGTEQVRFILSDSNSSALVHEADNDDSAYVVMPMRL", "test": "ITC of peptides with P. aeruginosa clamp", "type": "binding", "description": "as §1\nProtein quality was assessed by DLS. The purification of clamps from other bacteria used the same procedure.\nThe bacterial sliding clamps present a highly conserved binding site among bacterial species. […] All these species belong to the ESKAPE group and are in the first priority bacteria list established by the World Health Organization for which new antibiotics are urgently needed."}, "[3]": {"conditions": "Kd (nM), ITC at 298.15 K (25° C.)"}},
  "note": "Where two headings read alike, the source gives them in different places. Numbered stars: 1 amine (or outer) side, 2 acyl side, 3 side chain; on linkers, the order of the positions; unused ones are H or OH. Square brackets hold non-standard residues; d marks the D form. Peptide text beside a SMILES is read from it. * marks the point of attachment. NEtAsp = CCN([C@@H](CC(=O)[*:3])C(=O)[*:2])[*:1]; Acryloyl(3-(3-pyridyl),E) = O=C(/C=C/c1cccnc1)*; Phe(3,4-Cl2) = N[C@@H](Cc1ccc(Cl)c(Cl)c1)C(=O)O; Cinnamoyl(4-F) = O=C(/C=C/c1ccc(F)cc1)*; NH(4-MeO-phenyl) = COc1ccc(N*)cc1; NMeR = CN[C@@H](CCCNC(=N)N)C(=O)O; NFurfurylGly = O=C(O)CNCc1ccco1; NMeQ = CN[C@@H](CCC(N)=O)C(=O)O; Cha = N[C@@H](CC1CCCCC1)C(=O)O; NMeD = CN[C@@H](CC(=O)O)C(=O)O; NMeL = CN[C@@H](CC(C)C)C(=O)O; Pip = O=C(O)[C@@H]1CCCCN1; CO = O=C([*:1])[*:2]",
  "data": [
    {"smiles": "CCN(C(=O)[C@H](CC1CCCCC1)NC(=O)[C@H](CCC(N)=O)NC(C)=O)[C@@H](CC(=O)O)C(=O)N[C@@H](CC(C)C)C(=O)N[C@@H](Cc1ccccc1)C(=O)O", "note": "[P5] (Ac-Q[Cha][NEtAsp]LF-OH)", "values": [
      {"measurement": "ΔG (kcal/mol)", "setting": "[1]; ITC at 298.15 K (25° C.)", "value": "-8.57 (± 0.07) kcal/mol"},
      {"measurement": "Kd", "setting": "[1]; [3]", "value": 523, "unit": "nM"},
      {"measurement": "kon", "setting": "[1]; read-out: kon (M^-1.s^-1)", "value": 28800, "unit": "M⁻¹ s⁻¹"}
    ]},
    {"smiles": "CC(=O)N[C@@H](CCC(N)=O)C(=O)N[C@@H](CC1CCCCC1)C(=O)N[C@@H](CC(=O)O)C(=O)N[C@@H](CC(C)C)C(=O)N1CCCC[C@H]1C(=O)N[C@@H](CC(C)C)C(=O)O", "note": "[P34] (Ac-Q[Cha]DL[Pip]L-OH)", "values": [
      {"measurement": "ΔG (kcal/mol)", "setting": "[1]; ITC at 298.15 K (25° C.)", "value": "-9.0 (± 0.1) kcal/mol"},
      {"measurement": "Kd", "setting": "[1]; [3]", "value": 243, "unit": "nM"},
      {"measurement": "kon", "setting": "[1]; read-out: kon (M^-1.s^-1)", "value": 43000, "unit": "M⁻¹ s⁻¹"}
    ]},
    {"smiles": "CC(=O)N(C)[C@@H](CCCNC(=N)N)C(=O)N[C@@H](CCC(N)=O)C(=O)N[C@@H](CC1CCCCC1)C(=O)N(C)[C@@H](CC(=O)O)C(=O)N[C@@H](CC(C)C)C(=O)N[C@@H](Cc1ccc(Cl)c(Cl)c1)C(=O)O", "note": "[P37] (Ac-[NMeR]Q[Cha][NMeD]L[Phe(3,4-Cl2)]-OH)", "values": [
      {"measurement": "Kd", "setting": "[2]; affinities (Kd in nM), P. aeruginosa, ITC at 25° C., means of three independant experiments, standard deviations in brackets", "value": 169, "unit": "nM"},
      {"measurement": "Kd", "setting": "[2]; affinity for these clamps (^PaSC and ^AbSC), range over ^PaSC and ^AbSC", "value": "120 to 170", "unit": "nM"},
      {"measurement": "Kd", "setting": "[1]; [3]", "value": 92, "unit": "nM"},
      {"measurement": "Kd", "setting": "[1]; affinities (Kd in nM), E.coli, ITC at 25° C., means of three independant experiments, standard deviations in brackets", "value": 74, "unit": "nM"}
    ]},
    {"smiles": "CC(=O)N(C)[C@@H](CCC(N)=O)C(=O)N[C@@H](CC1CCCCC1)C(=O)N[C@@H](CC(=O)O)C(=O)N[C@@H](CC(C)C)C(=O)N[C@@H](Cc1ccccc1)C(=O)O", "note": "[P2] (Ac-[NMeQ][Cha]DLF-OH)", "values": [
      {"measurement": "ΔG (kcal/mol)", "setting": "[1]; ITC at 298.15 K (25° C.)", "value": "-7.7 (± 0.2) kcal/mol"},
      {"measurement": "Kd", "setting": "[1]; [3]", "value": "> 1000", "unit": "nM"},
      {"measurement": "kon", "setting": "[1]; read-out: kon (M^-1.s^-1)", "value": 21000, "unit": "M⁻¹ s⁻¹"}
    ]},
    {"smiles": "CC(C)C[C@H](NC(=O)[C@H](CC(=O)O)NC(=O)[C@H](CC1CCCCC1)NC(=O)[C@H](CCC(N)=O)NC(=O)CNCc1ccco1)C(=O)N[C@@H](Cc1ccccc1)C(=O)O", "note": "[P9] (H-[NFurfurylGly]Q[Cha]DLF-OH)", "values": [
      {"measurement": "ΔG (kcal/mol)", "setting": "[1]; ITC at 298.15 K (25° C.)", "value": "-9.2 (± 0.1) kcal/mol"},
      {"measurement": "Kd", "setting": "[1]; [3]", "value": 171, "unit": "nM"},
      {"measurement": "kon", "setting": "[1]; read-out: kon (M^-1.s^-1)", "value": 48000, "unit": "M⁻¹ s⁻¹"}
    ]},
    {"smiles": "CC(=O)N[C@@H](CCC(N)=O)C(=O)N[C@@H](CC1CCCCC1)C(=O)N[C@@H](CC(=O)O)C(=O)N(C)[C@@H](CC(C)C)C(=O)N[C@@H](Cc1ccccc1)C(=O)O", "note": "[P6] (Ac-Q[Cha]D[NMeL]F-OH)", "values": [
      {"measurement": "ΔG (kcal/mol)", "setting": "[1]; ITC at 298.15 K (25° C.)", "value": "-5.2 (± 0.2) kcal/mol"},
      {"measurement": "Kd", "setting": "[1]; [3]", "value": "> 1000", "unit": "nM"}
    ]},
    {"smiles": "CC(C)C[C@H](NC(=O)[C@H](CC(=O)O)NC(=O)[C@H](CC1CCCCC1)NC(=O)[C@H](CCC(N)=O)NC(=O)/C=C/c1ccc(F)cc1)C(=O)N[C@@H](Cc1ccccc1)C(=O)O", "note": "[P18] ({Cinnamoyl(4-F)}-Q[Cha]DLF-OH)", "values": [
      {"measurement": "Kd", "setting": "[1]; [3]", "value": 144, "unit": "nM"}
    ]},
    {"smiles": "CC(=O)N[C@@H](CCC(N)=O)C(=O)N[C@@H](CC1CCCCC1)C(=O)N(C)[C@@H](CC(=O)O)C(=O)N[C@@H](CC(C)C)C(=O)N1CCC[C@H]1C(=O)N[C@@H](Cc1ccccc1)C(=O)O", "note": "[P45] (Ac-Q[Cha][NMeD]LPF-OH)", "values": [
      {"measurement": "ΔG (kcal mol^-1)", "setting": "[1]; ITC at 25° C.", "value": "-9.7 (± 0.2) kcal mol^-1"},
      {"measurement": "Kd", "setting": "[1]; [3]", "value": 81, "unit": "nM"},
      {"measurement": "kon", "setting": "[1]; read-out: kon (M^-1 s^-1)", "value": 60000, "unit": "M⁻¹ s⁻¹"}
    ]},
    {"smiles": "CC(C)C[C@H](NC(=O)[C@@H]1CCCN1C(=O)[C@H](CC(C)C)NC(=O)[C@H](CC(=O)O)N(C)C(=O)[C@H](CC1CCCCC1)NC(=O)[C@H](CCC(N)=O)NC(=O)/C=C/c1cccnc1)C(=O)O", "note": "[P44] ({Acryloyl(3-(3-pyridyl),E)}-Q[Cha][NMeD]LPL-OH)", "values": [
      {"measurement": "ΔG (kcal mol^-1)", "setting": "[1]; ITC at 25° C.", "value": "-9.2 (± 0.1) kcal mol^-1"},
      {"measurement": "Kd", "setting": "[1]; [3]", "value": 177, "unit": "nM"},
      {"measurement": "kon", "setting": "[1]; read-out: kon (M^-1 s^-1)", "value": 63000, "unit": "M⁻¹ s⁻¹"}
    ]},
    {"smiles": "COc1ccc(NC(=O)N[C@@H](CCC(N)=O)C(=O)N[C@@H](CC2CCCCC2)C(=O)N(C)[C@@H](CC(=O)O)C(=O)N[C@@H](CC(C)C)C(=O)N[C@@H](Cc2ccc(Cl)c(Cl)c2)C(=O)O)cc1", "note": "[P39] ({NH(4-MeO-phenyl)-CO}-Q[Cha][NMeD]L[Phe(3,4-Cl2)]-OH)", "values": [
      {"measurement": "ΔG (kcal mol^-1)", "setting": "[1]; ITC at 25° C.", "value": "-9.0 (± 0.01) kcal mol^-1"},
      {"measurement": "Kd", "setting": "[1]; [3]", "value": 266, "unit": "nM"},
      {"measurement": "kon", "setting": "[1]; read-out: kon (M^-1 s^-1)", "value": 42000, "unit": "M⁻¹ s⁻¹"}
    ]},
    {"smiles": "COc1ccc(NC(=O)N[C@@H](CCC(N)=O)C(=O)N[C@@H](CC2CCCCC2)C(=O)N[C@@H](CC(=O)O)C(=O)N[C@@H](CC(C)C)C(=O)N[C@@H](Cc2ccccc2)C(=O)O)cc1", "note": "[P22] ({NH(4-MeO-phenyl)-CO}-Q[Cha]DLF-OH)", "values": [
      {"measurement": "Kd", "setting": "[1]; [3]", "value": 73, "unit": "nM"},
      {"measurement": "kon", "setting": "[1]; read-out: kon (M^-1.s^-1)", "value": 40000, "unit": "M⁻¹ s⁻¹"}
    ]}
  ]
}
